Each structure is given as a SMILES string. Bounds are passed on as bounds.

What all share (format): cell-based
For assay [1], the system named is A2058 (BRAF-V600E heterozygous mutant). Nature of the assay: RRA cytotoxicity, A2058. To be noted: Homo sapiens; A2058, compounds. The protocol:
(§1) 18 cancer cell lines and normal hepatocyte AML12 were used in the present study. Cancer cell lines such as drug-sensitive leukemia CCRF-CEM and multidrug-resistant P-glycoprotein-overexpressing subline CEM/ADR5000 cells, breast cancer MDA-MB-231-pcDNA cells and its resistant subline MDA-MB-231-BCRP clone 23 cells, colon cancer HCT116 p53^+/+ cells and its knockout clone HCT116 p53^−/−, glioblastoma U87MG cells, and its resistant subline U87MG.ΔEGFR [7, 23, 24]. The maintenance of HepG2 cells and AML12 hepatocytes was also published. The CC531 rat colon carcinoma cells, B16-F1, B16-F10, A2058, SK-Mel505, MaMel-80a, MV3, SkMel-28, and Mel-2A, were previously reported.
(§2) Different types of human cancer cell lines were used in this study. The resazurin reduction assay (RRA) as previously described with similar experimental conditions to those reported earlier was used to measure the cell cytotoxicity. Fluorescence was measured on an Infinite M2000 Pro™ plate reader (Tecan, Germany) using an excitation wavelength of 544 nm and an emission wavelength of 590 nm. The viability was determined based on a comparison with untreated cells. The values representing the sample's concentrations required to inhibit 50% of cell proliferation (IC50) were calculated from a calibration curve by linear regression using Microsoft Excel 2013 [33, 34].

In assay [2] the test system is CC531 rat colon carcinoma cells. Put plainly: RRA cytotoxicity, CC531. The settings on record: Colon carcinoma cell, CC531, compounds. The protocol: as §1, §2
The subject of the next assay is B16-F1 murine melanoma. Nature of the assay: RRA cytotoxicity, B16-F1. To be noted: Mus musculus; B16-F1, compounds. How it is done: as §1, §2
In a further assay the test system is B16-F10 murine melanoma. Put plainly: RRA cytotoxicity, B16-F10. To be noted: Mus musculus; B16-F10, compounds. The protocol: as §1, §2
The test system of a further assay is MV3 (BRAF wild type). Put plainly: RRA cytotoxicity, MV3. To be noted: Homo sapiens; MV3, compounds. How it is done: as §1, §2
Assay [3] has as its system MaMel-80a (BRAF-V600E homozygous mutant melanoma). Nature of the assay: RRA cytotoxicity, MaMel-80a. The settings on record: Homo sapiens, compounds. The protocol: as §1, §2
Assay [4] relates to Mel-2a (BRAF-V600E heterozygous mutant). Nature of the assay: RRA cytotoxicity, Mel-2a. To be noted: Homo sapiens, compounds. How it is done: as §1, §2
Assay [5] concerns SKMel-28 (BRAF-V600E homozygous mutant). Put plainly: RRA cytotoxicity, SKMel-28. To be noted: Homo sapiens, SK-MEL-28; SKMel-28, compounds. How it is done: as §1, §2
Assay [6] has as its system SKMel-505 BRAF wild-type melanoma cells. Put plainly: RRA cytotoxicity, SKMel-505. To be noted: Homo sapiens; SKMel-505, compounds. The protocol:
as §1, §2

A further assay concerns tested cancer cell lines. Nature of the assay: RRA cytotoxicity, summary over the panel of tested cancer cell lines. The settings on record: all cell lines tested (Table 3 panel). How it is done: as §1, §2
The test system of assay [7] is HepG2 hepatocarcinoma cells. Put plainly: RRA cytotoxicity, HepG2. To be noted: Homo sapiens; HepG2, doxorubicin column of Table 2.
Method: The resazurin reduction assay (RRA) as previously described [24, 32] with similar experimental conditions to those reported earlier [26–30] was used to measure the cell cytotoxicity. Fluorescence was measured on an Infinite M2000 Pro™ plate reader (Tecan, Germany) using an excitation wavelength of 544 nm and an emission wavelength of 590 nm. The viability was determined based on a comparison with untreated cells.
For a further assay, the system named is HCT116 p53−/− cells. Put plainly: RRA cytotoxicity, HCT116 (p53−/−). The settings on record: Homo sapiens, HCT-116, doxorubicin. The protocol:
as §1, §2

For another assay, the system named is normal AML12 hepatocytes. Nature of the assay: RRA cytotoxicity, normal AML12 hepatocytes. The settings on record: Mus musculus; AML12, doxorubicin column of Table 2. The protocol:
as §1, §2

For another assay, the system named is glioblastoma U87MG cells. Put plainly: RRA cytotoxicity, U87MG. The settings on record: Homo sapiens, U-87 MG, doxorubicin. The protocol: as §1, §2
The subject of assay [8] is MDA-MB-231-BCRP clone 23 cells. Nature of the assay: RRA cytotoxicity, MDA-MB-231-BCRP. To be noted: Homo sapiens, doxorubicin. How it is done:
as §1, §2

The test system of a further assay is U87MG.ΔEGFR cells. Nature of the assay: RRA cytotoxicity, U87MG.ΔEGFR. To be noted: Homo sapiens, doxorubicin. How it is done:
as §1, §2

Assay [9] relates to breast cancer MDA-MB-231-pcDNA cells. Nature of the assay: RRA cytotoxicity, MDA-MB-231-pcDNA. To be noted: Homo sapiens, doxorubicin. The protocol:
as §1, §2

The test system of another assay is CCRF-CEM leukemia cells. Put plainly: Resazurin reduction assay (RRA) cytotoxicity, CCRF-CEM. The settings on record: Homo sapiens, doxorubicin. The protocol: as §1, §2
Background: Resazurin is reduced to fluorescent resorufin, in cell work by metabolically active cells.

`C[C@@H]1CC[C@@]2(OC1)O[C@H]1C[C@H]3[C@@H]4CC=C5C[C@@H](O[C@@H]6O[C@H](CO)[C@@H](O)[C@H](O)[C@H]6O)CC[C@]5(C)[C@H]4CC[C@]3(C)[C@H]1[C@@H]2C` [Compound 6, diosgenin-3-O-β-D-glucopyranoside]: the IC50 was 38.9 ± 2.78 µM in assay [1]; > 100 µM in assay [2]; 79.2 ± 5.39 µM in the assay with B16-F1 murine melanoma; > 100 µM in the assay with B16-F10 murine melanoma; > 100 µM in the assay on MV3 (BRAF wild type); > 100 µM in assay [3]. In addition, the IC50 in [4], in assay [5] and in assay [6] was > 100 µM throughout.
`CC(CCC1(O)OC2CC3C4CC=C5CC(OC6OC(CO)C(O)C(OC7OC(CO)C(O)C(O)C7O)C6OC6OC(C)C(O)C(O)C6O)CCC5(C)C4CCC3(C)C2C1C)COC1OC(CO)C(O)C(O)C1O` [Compound 3, (25R)-26-O-(β-D-galactopyranosyl)-furost-5-ene-3β, 22α, 26-trihydroxy-3-O-β-D-glucopyranosyl-(1 ⟶ 2)-[α-L-rhamnopyranosyl-(1 ⟶ 3)]-β-D-glucopyranoside]: the IC50 with tested cancer cell lines is > 100 µM.
For `C[C@@H]1CC[C@@]2(OC1)O[C@H]1C[C@H]3[C@@H]4CC=C5C[C@@H](O)CC[C@]5(C)[C@H]4CC[C@]3(C)[C@H]1[C@@H]2C` [Compound 5, diosgenin], the IC50 in [1] is 27.1 ± 1.18 µM; in assay [2], > 100 µM; in the assay on B16-F1 murine melanoma it was > 100 µM; in the assay on B16-F10 murine melanoma, > 100 µM; with MV3 (BRAF wild type), > 100 µM; in [3], > 100 µM. Also, the IC50 in [4], in assay [5] and in [6] was > 100 µM throughout.
For `COc1cccc2c1C(=O)c1c(O)c3c(c(O)c1C2=O)C[C@@](O)(C(=O)CO)C[C@@H]3O[C@H]1C[C@H](N)[C@H](O)[C@H](C)O1` [Doxorubicin, reference compound], the IC50 is 0.29 ± 0.04 µM in [1]; 4.56 ± 0.48 µM in [7]; 1.78 ± 0.08 µM in the assay on HCT116 p53−/− cells; 0.44 ± 0.23 µM in assay [2]; 52.9 ± 4.09 µM in the assay with normal AML12 hepatocytes; 0.22 ± 0.01 µM in the assay with B16-F1 murine melanoma. For the same compound, the half-inhibitory concentration (IC50) worked out at 0.24 ± 0.03 µM in the assay with B16-F10 murine melanoma; 0.26 ± 0.03 µM with glioblastoma U87MG cells; 7.09 ± 0.59 µM in the assay with MV3 (BRAF wild type); 8.66 ± 0.56 µM in [3]; 6.63 ± 0.41 µM in [4]; 2.14 ± 0.12 µM in assay [5]. Further, the half-maximal inhibitory concentration (IC50) was determined as 0.79 ± 0.08 µM in assay [8]; 0.98 ± 0.07 µM in the assay with U87MG.ΔEGFR cells; 9.39 ± 1.01 µM in [6]; 0.13 ± 0.01 µM in assay [9]; 0.02 µM in the assay with CCRF-CEM leukemia cells.
For `CC(CCC1(O)OC2CC3C4CC=C5CC(OC6OC(CO)C(O)C(O)C6O)CCC5(C)C4CCC3(C)C2C1C)COC1OC(CO)C(O)C(O)C1O` [Compound 8, 26-O-β-D-glucopyranosyl-(22R,25R)-3β, 22, 26-trihydroxyfurost-5-ene-3-O-β-D-glucopyranoside], the IC50 with tested cancer cell lines is > 100 µM.
Take `C[C@@H]1CC[C@@]2(OC1)O[C@H]1C[C@H]3[C@@H]4CC=C5C[C@@H](O[C@@H]6O[C@H](CO)[C@@H](O[C@@H]7O[C@H](CO)[C@@H](O)[C@H](O)[C@H]7O)[C@H](O)[C@H]6O[C@@H]6O[C@@H](C)[C@H](O)[C@@H](O)[C@H]6O)CC[C@]5(C)[C@H]4CC[C@]3(C)[C@H]1[C@@H]2C` [Compound 7, deltonin]: the IC50 in the assay with tested cancer cell lines was > 100 µM.

One may read the IC50 as the concentration needed to halve the response being measured. A higher IC50 goes with a need for much substance.

These data come from PMC8983201 (Evidence-based Complementary and Alternative Medicine : eCAM, 2022).
